According to US8697694B2, “Substituted pyridine and pyrimidine derivatives and their use in treating viral infections” (priority 2008, dated 2014):

Test system: HCV replicon cells
Experiment: Cell-based HCV replicon assay (replicon RNA level by real time PCR, Taqman)
Settings: Hepatitis C virus, 72 h, HCV replicon cells, replicon RNA level by real time PCR, harvested day 3; read-out: EC90 (μM) range
Outline: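 Readout: ΔCT between NS5B replicon RNA and GAPDH by real-time RT-PCR in lysates harvested on day 3, fitted sigmoidally; EC50 at ΔCT=1, EC90 at ΔCT=3.2. Compounds tested at ten 2-fold dilutions from 25 μM to 1 μM start, 10% FBS, 0.5% DMSO.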

SMILES	EC90 [µM]
Cc1nc(N[C@H](C)c2ccc(OC(F)F)cc2)nc(N[C@@H]2C[C@H](CO)[C@@H](O)[C@H]2O)c1-c1nc2c(C)nccc2s1 [Example 1545]	< 0.5
Cc1nc(N[C@@H](c2ccc(OC(F)(F)F)cc2)C(F)(F)F)nc(N[C@@H]2C[C@H](CO)[C@@H](O)[C@H]2O)c1-c1nc2c(C)nccc2s1 [Example 1546]	< 0.5
COCCNc1nc(C)c(-c2cc3ccccc3s2)c(N[C@@H]2C[C@H](CO)[C@@H](O)[C@H]2O)n1 [Example 1601]	> 5
Cc1nc(NCc2cccs2)nc(N[C@@H]2C[C@H](CO)[C@@H](O)[C@H]2O)c1-c1cc2ccccc2s1 [Example 1602]	> 5
Cc1nc(NCC2CC2)nc(N[C@@H]2C[C@H](CO)[C@@H](O)[C@H]2O)c1-c1cc2ccccc2s1 [Example 1603]	> 5
Cc1nc(NCC(F)(F)F)nc(N[C@@H]2C[C@H](CO)[C@@H](O)[C@H]2O)c1-c1cc2ccccc2s1 [Example 1604]	> 5
Cc1nc(O)nc(N[C@@H]2C[C@H](CO)[C@@H](O)[C@H]2O)c1-c1nc2ccccc2s1 [Example 1605]	> 5
Cc1nc(NCC2CC2)nc(NC2CC(CO)(CO)C2)c1-c1nc2ccccc2s1 [Example 1610]	0.5 to 5
Cc1cc(NCC2CC2)nc(N[C@@H]2C[C@H](CO)[C@@H](O)[C@H]2O)c1-c1nc2ccccc2s1 [Example 1616]	> 5
Cc1nc(NCC2CC2)nc(NC[C@@H]2CC2(CO)CO)c1-c1nc2ccccc2s1 [Example 1617]	> 5
Cc1nc(NCC(F)(F)F)nc(NC[C@@H]2CC2(CO)CO)c1-c1nc2ccccc2s1 [Example 1618]	0.5 to 5
Cc1ccc([C@@H](C)Nc2cc(C)c(-c3nc4ccccc4s3)c(N[C@@H]3C[C@H](CO)[C@@H](O)[C@H]3O)n2)cc1 [Example 1619]	> 5
Cc1nc(Nc2cccc3cccnc23)nc(N[C@@H]2C[C@H](CO)[C@@H](O)[C@H]2O)c1-c1nc2ccccc2s1 [Example 1620]	> 5
Cc1nc(N[C@H](C)C(F)(F)F)nc(N[C@@H]2C[C@H](CO)[C@@H](O)[C@H]2O)c1-c1nc2ccccc2s1 [Example 1623]	0.5 to 5
Cc1nc(NCC(F)(F)F)nc(N[C@@H]2CC[C@@H](O)C2O)c1-c1nc2ccccc2s1 (stereo partly drawn) [Example 1625]	0.5 to 5
Cc1nc(NCC2CC2)nc(N[C@@H]2CC[C@@H](O)C2O)c1-c1nc2ccccc2s1 (stereo partly drawn) [Example 1626]	0.5 to 5
Cc1nc(NCC2CC2)nc(N[C@H]2[C@H](O)CC[C@@H]2O)c1-c1nc2ccccc2s1 [Example 1627]	> 5
CCNC(=O)OC[C@H]1C[C@@H](Nc2nc(NCC(F)(F)F)nc(C)c2-c2nc3ccccc3s2)[C@H](O)[C@@H]1O [Example 1628]	< 0.5
CCNC(=O)OC[C@H]1C[C@@H](Nc2nc(NCC3CC3)nc(C)c2-c2nc3ccccc3s2)[C@H](O)[C@@H]1O [Example 1629]	0.5 to 5
Cc1nc(NCC(F)(F)F)nc(N[C@@H]2C[C@H](C)[C@@H](O)[C@H]2O)c1-c1nc2ccccc2s1 [Example 1630]	< 0.5
Cc1nc(NCC(F)(F)F)nc(N[C@@H]2C[C@H](C(C)O)[C@@H](O)[C@H]2O)c1-c1nc2ccccc2s1 (stereo partly drawn) [Example 1632]	< 0.5

SMILES	EC90 [µM]
Cc1nc(NCC(F)(F)F)nc(N[C@@H]2C[C@H](C)[C@@H](O)[C@H]2O)c1-c1nc2cnccc2s1 [Example 1633]	< 0.5
Cc1nc(NCC2CC2)nc(N[C@@H]2C[C@H](C)[C@@H](O)[C@H]2O)c1-c1nc2cnccc2s1 [Example 1634]	< 0.5
Cc1nc(NCC(F)(F)F)nc(N[C@@H]2C[C@H](CC#N)[C@@H](O)[C@H]2O)c1-c1nc2ccccc2s1 [Example 1635]	< 0.5
CC(=O)C1=C[C@@H](O)[C@H](Nc2nc(NCC(F)(F)F)nc(C)c2-c2nc3ccccc3s2)C1 [Example 1636]	< 0.5
CCC(O)[C@H]1C[C@@H](Nc2nc(NCC(F)(F)F)nc(C)c2-c2nc3ccccc3s2)[C@H](O)[C@@H]1O (stereo partly drawn) [Example 1637]	0.5 to 5
Cc1nc(NCC(F)(F)F)nc(N[C@@H]2C[C@H](C(O)C(C)C)[C@@H](O)[C@H]2O)c1-c1nc2ccccc2s1 (stereo partly drawn) [Example 1638]	0.5 to 5
Cc1nc(NCC(F)(F)F)nc(N[C@@H]2C[C@H](C(O)c3nccs3)[C@@H](O)[C@H]2O)c1-c1nc2ccccc2s1 (stereo partly drawn) [Example 1639]	< 0.5
Cc1nc(NCC(F)(F)F)nc(N[C@@H]2C[C@H](C(C)(C)O)[C@@H](O)[C@H]2O)c1-c1nc2ccccc2s1 [Example 1640]	0.5 to 5
Cc1nc(NCC2CC2)nc(N[C@@H]2C[C@H](C(C)O)[C@@H](O)[C@H]2O)c1-c1nc2cnccc2s1 (stereo partly drawn) [Example 1641]	< 0.5
Cc1nc(N[C@H](C)C2CC2)nc(N[C@@H]2C[C@H](C(C)O)[C@@H](O)[C@H]2O)c1-c1nc2cnccc2s1 (stereo partly drawn) [Example 1642]	< 0.5
Cc1nc(N[C@H](C)c2ccc(OC(F)(F)F)cc2)nc(N[C@@H]2C[C@H](C(C)O)[C@@H](O)[C@H]2O)c1-c1nc2cnccc2s1 (stereo partly drawn) [Example 1649]	< 0.5
Cc1nc(NCC2CC2)nc(N[C@@H]2C[C@@H](C(C)O)[C@@H](O)[C@H]2O)c1-c1nc2cnccc2s1 (stereo partly drawn) [Example 1650]	< 0.5
Cc1nc(N[C@H](C)C2CC2)nc(N[C@@H]2C[C@@H](C(C)O)[C@@H](O)[C@H]2O)c1-c1nc2cnccc2s1 (stereo partly drawn) [Example 1651]	< 0.5
Cc1nc(N[C@H](C)c2ccc(OC(F)(F)F)cc2)nc(N[C@@H]2C[C@@H](C(C)O)[C@@H](O)[C@H]2O)c1-c1nc2cnccc2s1 (stereo partly drawn) [Example 1652]	< 0.5
Cc1nc(NCC(F)(F)F)nc(N[C@@H]2C[C@H](C(O)c3nccn3C)[C@@H](O)[C@H]2O)c1-c1nc2ccccc2s1 (stereo partly drawn) [Example 1653]	< 0.5
Cc1nc(NCC(F)(F)F)nc(N[C@@H]2C[C@H](C(O)c3ncc[nH]3)[C@@H](O)[C@H]2O)c1-c1nc2ccccc2s1 (stereo partly drawn) [Example 1654]	0.5 to 5
Cc1nc(NCC2CC2)nc(N[C@@H]2CC[C@@H](O)[C@@]2(C)O)c1-c1nc2ccccc2s1 [Example 1701]	0.5 to 5
Cc1nc(NCC(F)(F)F)nc(N[C@@H]2CC[C@@H](O)[C@@]2(C)O)c1-c1nc2ccccc2s1 [Example 1702]	0.5 to 5
Cc1nc(N[C@@H](c2ccsc2)C(F)(F)F)nc(N[C@@H]2C[C@H](CO)[C@@H](O)[C@H]2O)c1-c1nc2ccccc2s1 [Example 1703]	0.5 to 5
Cc1nc(NCC2CC2)nc(N[C@@H]2CC[C@@H](O)[C@@]2(C)O)c1-c1nc2cnccc2s1 [Example 1704]	< 0.5
CCOc1ccc(CCNc2nc(C)c(-c3nc4cnccc4s3)c(N[C@@H]3C[C@H](CO)[C@@H](O)[C@H]3O)n2)cc1 [Example 1705]	< 0.5

SMILES	EC90 [µM]
Cc1ccsc1CCNc1nc(C)c(-c2nc3ccccc3s2)c(N[C@@H]2C[C@H](CO)[C@@H](O)[C@H]2O)n1 [Example 1706]	0.5 to 5
Cc1ccsc1CCNc1nc(C)c(-c2nc3cnccc3s2)c(N[C@@H]2C[C@H](CO)[C@@H](O)[C@H]2O)n1 [Example 1707]	< 0.5
Cc1ccc([C@@H](C)Nc2nc(C)c(-c3nc4cnccc4s3)c(N[C@@H]3C[C@H](CO)[C@@H](O)[C@@]3(C)O)n2)cc1 [Example 1708]	< 0.5
Cc1nc(NCC(F)(F)F)nc(N[C@@H]2C[C@H](CO)[C@@H](O)[C@@]2(C)O)c1-c1nc2cnccc2s1 [Example 1709]	< 0.5
Cc1nc(N[C@@H](c2cccs2)C(F)(F)F)nc(N[C@@H]2C[C@H](CO)[C@@H](O)[C@H]2O)c1-c1nc2ccccc2s1 [Example 1801]	< 0.5
Cc1nc(NC(C)c2cccnc2)nc(N[C@@H]2C[C@H](CO)[C@@H](O)[C@H]2O)c1-c1nc2ccccc2s1 (stereo partly drawn) [Example 1802]	0.5 to 5
Cc1nc(N[C@H](c2cccs2)C(F)(F)F)nc(N[C@@H]2C[C@H](CO)[C@@H](O)[C@H]2O)c1-c1nc2ccccc2s1 [Example 1803]	> 5
Cc1nc(NCc2c(F)cccc2F)nc(N[C@@H]2C[C@H](CO)[C@@H](O)[C@H]2O)c1-c1nc2cnccc2s1 [Example 1804]	< 0.5
Cc1nc(NCCc2cccs2)nc(N[C@@H]2C[C@H](CO)[C@@H](O)[C@H]2O)c1-c1nc2ccccc2s1 [Example 1805]	< 0.5
Cc1nc(NCCc2cccs2)nc(N[C@@H]2C[C@H](CO)[C@@H](O)[C@H]2O)c1-c1nc2cnccc2s1 [Example 1806]	> 5
Cc1nc(NCc2c(F)cccc2F)nc(N[C@@H]2CC[C@@H](O)[C@@]2(C)O)c1-c1nc2cnccc2s1 [Example 1808]	< 0.5
Cc1nc(NCC(F)(F)F)nc(N[C@@H]2CC[C@@H](O)[C@@]2(C)O)c1-c1nc2cnccc2s1 [Example 1809]	0.5 to 5
Cc1ccc([C@H](C)Nc2nc(C)c(-c3nc4cnccc4s3)c(N[C@@H]3CC[C@@H](O)[C@@]3(C)O)n2)cc1 [Example 1810]	< 0.5
Cc1nc(N[C@H](C)C2CC2)nc(N[C@@H]2CC[C@@H](O)[C@@]2(C)O)c1-c1nc2cnccc2s1 [Example 1811]	< 0.5
Cc1ccc(CCNc2nc(C)c(-c3nc4ccccc4s3)c(N[C@@H]3C[C@H](CO)[C@@H](O)[C@H]3O)n2)s1 [Example 1812]	0.5 to 5
Cc1ccc(CCNc2nc(C)c(-c3nc4cnccc4s3)c(N[C@@H]3C[C@H](CO)[C@@H](O)[C@H]3O)n2)s1 [Example 1813]	< 0.5
Cc1nc(NCc2c(F)cccc2F)nc(N[C@@H]2CC[C@@H](O)[C@@]2(C)O)c1-c1nc2c(C)nccc2s1 [Example 1814]	< 0.5
Cc1nc(NCC2CC2)nc(N[C@@H]2CC[C@@H](O)[C@@]2(C)O)c1-c1nc2c(C)nccc2s1 [Example 1815]	< 0.5
Cc1nc(NCC(F)(F)F)nc(N[C@@H]2CC[C@@H](O)[C@@]2(C)O)c1-c1nc2c(C)nccc2s1 [Example 1816]	< 0.5
Cc1nc(N[C@H](C)C2CC2)nc(N[C@@H]2CC[C@@H](O)[C@@]2(C)O)c1-c1nc2c(C)nccc2s1 [Example 1817]	< 0.5
COc1ccc(CCNc2nc(C)c(-c3nc4cnccc4s3)c(N[C@@H]3CC[C@@H](O)[C@@]3(C)O)n2)cc1Cl [Example 1818]	0.5 to 5
